Experimental findings from patent publication US6998403B2, “Benzoindoline compounds” (Les Laboratoires Servier, priority 2003, dated 2006) are described below.

Marks after values point to notes of the source that are not given here.

One test concerns the target T1, 5-HT2C receptors (Homo sapiens, UniProt P28335).
T1 sequence (P28335 33-458): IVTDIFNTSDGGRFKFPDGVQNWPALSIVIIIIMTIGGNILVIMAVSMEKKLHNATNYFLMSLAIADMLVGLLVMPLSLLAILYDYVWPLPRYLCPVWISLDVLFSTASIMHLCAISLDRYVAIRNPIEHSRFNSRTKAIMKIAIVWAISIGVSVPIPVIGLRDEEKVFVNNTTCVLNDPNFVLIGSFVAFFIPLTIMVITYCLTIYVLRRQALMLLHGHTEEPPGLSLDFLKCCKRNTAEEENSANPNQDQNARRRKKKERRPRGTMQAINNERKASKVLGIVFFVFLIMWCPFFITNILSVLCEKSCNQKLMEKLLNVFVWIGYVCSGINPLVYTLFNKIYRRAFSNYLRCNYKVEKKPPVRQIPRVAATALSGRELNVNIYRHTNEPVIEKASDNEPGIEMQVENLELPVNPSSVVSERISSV
Kind of test: Determination of the affinity for 5-HT2C receptors (competition with [3H]-mesulergine). Format: binding. The following applies: 22° C., pH=7.7, IC50 converted into pKi. How it is done: The non-specific fraction is defined in the presence of 1 μM mianserin, the latter also being the reference product for each experiment. At the end of the incubation period, the medium is filtered through GF/B-Unifilter filters pre-treated with PEI (0.1%), followed by washing three times with the incubation buffer. The radioactivity retained on the filters is determined by liquid scintillation counting. The binding isotherms are analysed by non-linear regression in order to determine the IC50 values. They are converted into pKi (where Ki is the dissociation constant).

In test [1] the test system is extracellular concentrations of NA, DA and ACh in the frontal cortex. The test is described as follows: Measurement of neurotransmitters in the frontal cortex of rats (microdialysis, HPLC). It counts as in vivo, rat. To be noted: 10.0 mg/kg s.c.; for ACh, percentage area beneath the curve (%AbC ± S.E.M.): acetylcholine in frontal cortex dialysates of conscious rats; for ACh, percentage area beneath the curve (%AbC ± S.E.M.) / DA, percentage area beneath the curve (%AbC ± S.E.M.) / NA, percentage area beneath the curve (%AbC ± S.E.M.): 20 min. to 120 min. after administration; for DA, percentage area beneath the curve (%AbC ± S.E.M.): dopamine in frontal cortex dialysates of conscious rats; for change in extracellular concentration of ACh (in words) / change in extracellular concentration of DA (in words) / change in extracellular concentration of NA (in words): frontal cortex dialysates of conscious rats; for NA, percentage area beneath the curve (%AbC ± S.E.M.): noradrenaline in frontal cortex dialysates of conscious rats. On the procedure:
Measurement of Neurotransmitters in the Frontal Cortex of Rats
The surgery is performed under pentobarbital-induced anaesthesia (60 mg/kg, i.p.). Male Wistar rats, 200–220 g (Iffa Credo, Arbresle, France), are placed in a Kopf stereotaxic device and a cannula guide (CMAMicrodialyse AB, Stockholm, Sweden) is implanted in the frontal cortex at the coordinates (in mm): anteroposterior: +2.2, lateral: ±0.6, ventral deviation: −0.2. The rats are placed in separate cages and recover from the anaesthesia over 5 days. On the day of the dialysis, a Cuprophan CMA/11 probe (length: 4 mm; ext. dia.: 0.24 mm) is introduced into the guide and perfused at 1 μl/min. with a solution of NaCl: 147.2 mM; KCl: 4 mM; CaCl2: 2.3 mM adjusted to pH 7.3 with a phosphate buffer. Two hours after implantation, samples of dialysate are collected every 20 minutes for 4 hours. Three baseline samples are collected before administration of the drug.
Noradrenaline (NA) and dopamine (DA) are measured as follows: 20 μl of dialysate sample are diluted with 20 μl of mobile phase (NaH2PO4: 75 mM, EDTA: 20 μM, sodium decanesulphonate: 1 mM, methanol: 17.5%, triethylamine: 0.01%, pH: 5.70) and 33 μl are analysed by HPLC using, for separation, an inverse-phase column (Hypersil C 18, 150×4.6 mm; particle size 5 μm) thermostatically controlled at 43° C. and, for quantification, a coulometric detector (ESA5014, Coulochem II, ESA, Chelmsford, USA). The potential of the first electrode is −90 mV (reduction) and that of the second +280 mV (oxidation). The mobile phase flow rate is 2 ml/min. The sensitivity limit for NA and DA is 0.2 pg.
Acetylcholine (ACh) is measured and quantified in the absence of acetylcholine esterase (AChE) inhibitor 20 μl of dialysate sample are collected in 10 μl of 0.01% acetic acid. 20 μl aliquots are analysed by HPLC. The mobile phase is composed of Na2HPO4: 50 mM and ProClin: 0.5% (BAS, Congleton, UK), pH 8.2. The stationary phase is composed of a cation-exchange column (Sepstik, 530×1.0 mm, particle size 10 μm, BAS), a pre-column (choline oxidase/catalase enzymatic reactor, 55×1 mm, BAS) and a post-column (choline oxidase/AChE enzymatic reactor, 50×1 mm, BAS). The system is maintained at 35° C. Quantification is carried out by means of an amperometric detector (LC-4B, BAS). A layer of peroxidase-redox polymer is deposited on the vitreous carbon working electrode (MF2098, BAS). The potential of that electrode is +100 mV relative to the Ag/AgCl reference electrode. The mobile phase flow rate is 0.14 ml/min. The sensitivity limit for ACh is 0.1 pg.
The levels of NA, DA and ACh are expressed as the percentage area beneath the curve (% AbC) ±S.E.M. of times 20 min. to 120 min. after administration of the drug. The effects of the compound of Example 1 are compared (ANOVA) with those obtained in animals treated with the solvent or with 6-chloro-5-fluoro-N-[4-methoxy-3-(4-methyl-1-piperazinyl)phenyl]-1-indoline-carboxamide.

One may read the Ki as the equilibrium dissociation constant of an inhibitor or competing ligand from its target. The compound `COc1ccc(NC(=O)N2CCc3c2ccc2ccccc32)cc1N1CCN(C)CC1.Cl` [Example 1, N-[4-Methoxy-3-(4-methyl-1-piperazinyl)phenyl]-1,2-dihydro-3H-benzo[e]indole-3-carboxamide Hydrochloride] had a Ki on 5-HT2C receptors of 6.31 nM. Also, in test [1], the “ACh, percentage area beneath the curve (%AbC ± S.E.M.)” value was “+107.7 ± 13.5^a,b %AbC”; the “DA, percentage area beneath the curve (%AbC ± S.E.M.)” value was “+52.9 ± 6.6^a %AbC”; the “change in extracellular concentration of ACh (in words)” value was “substantial increase”; the “change in extracellular concentration of DA (in words)” value is “substantial increase”. For the same compound, in test [1], the “change in extracellular concentration of NA (in words)” value was “substantial increase” and the “NA, percentage area beneath the curve (%AbC ± S.E.M.)” value is on record as “+105.4 ± 7.3^a,b %AbC”.
For the compound `COc1ccc(NC(=O)N2CCc3cc(F)c(Cl)cc32)cc1N1CCN(C)CC1` [Example 11 of application EP-1170288, 6-chloro-5-fluoro-N-[4-methoxy-3-(4-methyl-1-piperazinyl)phenyl]-1-indolinecarboxamide], the Ki on 5-HT2C receptors was 39.8 nM. Besides, in test [1], the “ACh, percentage area beneath the curve (%AbC ± S.E.M.)” value is listed as “+15.1 ± 12.3 %AbC”; the “DA, percentage area beneath the curve (%AbC ± S.E.M.)” value is recorded as “+19.5 ± 4.9 %AbC”; the “change in extracellular concentration of ACh (in words)” value is “no change”; the “change in extracellular concentration of DA (in words)” value was “very modest increase”. Moreover, in test [1], the “change in extracellular concentration of NA (in words)” value was “very modest increase” and the “NA, percentage area beneath the curve (%AbC ± S.E.M.)” value is reported as “+39.8 ± 6.7 %AbC”.
